Measured values published in patent US7579356B2, “Thia-tetraazaacenaphthylene kinase inhibitors” (Janssen Pharmaceutica NV, priority 2005, dated 2009).

Assays:
Assay type in all cases: biochemical
Lyn kinase (human) = target: T1, Lyn kinase (human) (Homo sapiens, UniProt P07948); assay: Lyn Kinase Assay; details: test concentration of 2 μM
T1 construct: purchased Upstate Biotechnology, Lake Placid, N.Y
Method: A mixture of a 10× kinase buffer (500 mM MOPS at pH 7.5, 1 mM EGTA, 1 mM Sodium Vanadate, 1% β-mercaptoethanol and 100 mM Magnesium Acetate), ATP (5 μM final from a 10 mM stock), polyGluTyr (0.1 mg/mL final from a 1 mg/mL stock), γ-^33P ATP (10 μCl/μL stock) and water (for a total of 20 μL/well) was added to each well of a Streptavidin Flashplate.
Test compound in 100% DMSO (0.5 μL) was added to the appropriate wells. Diluted Lyn kinase (human)(Accession Number EMBL M16038) (Upstate Biotechnology, Lake Placid, N.Y.) (diluted in a buffer consisting of 50 mM Tris at pH 7.5, 0.1 mM EGTA, Sodium Vanadate (0.1 mM), β-mercaptoethanol (0.1%) and 1 mg/mL bovine serum albumin) (2.5 μL) was added to the wells to initiate the reactions.
The reaction plates were incubated at 30° C. for 40 min. The reaction was terminated by the addition of a 3% phosphoric acid solution (5 μL). The reaction product (10 μL) was spotted onto a P30 filtermat and washed for 5 minutes in phosphoric acid (75 mM). The wash sequence was repeated two more times, followed with one final wash in methanol. The plates were then dried, sealed and read on the TopCount scintillation counter after adding 30 μL scintillation fluid.
The Lyn inhibition values were derived according to the procedure described in Example 164 and are shown as percent in Table 3 at a test concentration of 2 μM. For those compounds with an IC50, the IC50 value in μM is shown in parentheses. For compounds with multiple test values, each value represents a separate assay result.

EGFR = target: T2, EGFR (Homo sapiens, UniProt P00533); assay: EGFR Kinase Assay; details: for inhibition at 2 µM: test concentration of 2 μM, compounds without an IC50, read-out: EGFR inhibition in percent; for IC50: GST-EGFR, ATP 5 μM
T2 construct: The intracellular portion of EGFR started at nucleotide 2189 (corresponding to amino acid 667) and ended at the termination codon; made in house; host or cells: Sf9 insect cells (baculovirus)
Method in brief: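 GST-fused human EGFR intracellular domain (from aa 667), Sf9-expressed, phosphorylated biotinylated polyGluTyr with 5 μM ATP plus γ-33P ATP in Tris pH 8.0, MgCl2, vanadate, 1 mM DTT, 1 h at 30 °C. Streptavidin Flashplate scintillation read; triplicate 16-point half-log series from 200 uM; IC50 from % inhibition vs log concentration, else % inhibition at 2 μM.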

HER-2 = target: T3, HER-2 (Homo sapiens, UniProt P04626); assay: HER-2 Kinase Assay; details: for inhibition at 1 µM: test concentration of 1 μM; for IC50: value in parentheses
T3 construct: His6 with thrombin site (N); purchased Proqinase (Freiburg, Germany)
Method in brief: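 GST/HIS6-tagged HER-2 aa 679–1255 kinase with biotinylated polyGluTyr (1.5 ng/μL), 1 μM ATP plus γ-33P-ATP, Mg2+/Mn2+, DTT, Hepes pH 7.5; 1 h at 30 °C. Substrate phosphorylation captured on streptavidin scintillation plates after EDTA/PBS washes; values are % inhibition at 1 μM or IC50.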

c-Src kinase (human) = target: T4, c-Src kinase (human) (Homo sapiens, UniProt P12931); assay: c-Src Kinase Assay; details: test concentration of 2 μM; multiple values are separate assay results
T4 construct: purchased Upstate Biotechnology, Lake Placid, N.Y
Method in brief: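 Inhibition was read as 33P incorporation, counted on P30 filtermats, after a 40 min, 30° C reaction. Human c-Src acted on 100 μM Cdc2 peptide with 5 μM ATP (final), pH 7.0 MOPS/MgCl2. Values are percent inhibition at 2 μM compound, or IC50 where determined.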

T4 sequence (P12931 whole entry): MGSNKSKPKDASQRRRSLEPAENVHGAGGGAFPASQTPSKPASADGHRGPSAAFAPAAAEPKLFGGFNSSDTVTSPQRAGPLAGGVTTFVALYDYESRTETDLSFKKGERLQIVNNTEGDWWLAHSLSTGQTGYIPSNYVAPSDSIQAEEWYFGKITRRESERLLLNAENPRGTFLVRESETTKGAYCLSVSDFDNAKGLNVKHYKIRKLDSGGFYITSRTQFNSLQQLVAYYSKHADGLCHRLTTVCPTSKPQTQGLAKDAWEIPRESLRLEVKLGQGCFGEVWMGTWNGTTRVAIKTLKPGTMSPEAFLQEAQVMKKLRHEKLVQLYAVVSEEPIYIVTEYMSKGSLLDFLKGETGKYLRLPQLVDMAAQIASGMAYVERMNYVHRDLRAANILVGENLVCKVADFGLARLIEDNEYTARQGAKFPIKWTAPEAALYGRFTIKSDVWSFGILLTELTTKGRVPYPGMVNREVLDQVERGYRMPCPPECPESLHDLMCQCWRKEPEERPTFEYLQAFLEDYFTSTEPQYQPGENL
T3 sequence (P04626 679-1255): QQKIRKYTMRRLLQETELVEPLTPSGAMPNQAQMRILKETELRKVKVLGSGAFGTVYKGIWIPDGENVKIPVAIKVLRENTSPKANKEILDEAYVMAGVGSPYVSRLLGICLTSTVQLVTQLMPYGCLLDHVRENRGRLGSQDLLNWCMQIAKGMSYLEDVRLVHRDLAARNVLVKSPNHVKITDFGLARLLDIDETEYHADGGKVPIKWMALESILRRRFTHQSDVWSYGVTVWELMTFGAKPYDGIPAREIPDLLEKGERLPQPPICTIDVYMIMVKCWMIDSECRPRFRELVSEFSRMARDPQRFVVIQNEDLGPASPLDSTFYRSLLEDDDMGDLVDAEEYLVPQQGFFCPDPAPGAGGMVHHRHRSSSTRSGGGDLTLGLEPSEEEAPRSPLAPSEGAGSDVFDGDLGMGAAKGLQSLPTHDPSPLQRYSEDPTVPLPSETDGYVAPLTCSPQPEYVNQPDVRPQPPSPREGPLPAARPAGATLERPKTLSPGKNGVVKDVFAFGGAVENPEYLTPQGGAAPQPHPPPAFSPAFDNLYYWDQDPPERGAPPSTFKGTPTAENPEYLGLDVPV
T2 sequence (P00533 669-1210 limits assumed): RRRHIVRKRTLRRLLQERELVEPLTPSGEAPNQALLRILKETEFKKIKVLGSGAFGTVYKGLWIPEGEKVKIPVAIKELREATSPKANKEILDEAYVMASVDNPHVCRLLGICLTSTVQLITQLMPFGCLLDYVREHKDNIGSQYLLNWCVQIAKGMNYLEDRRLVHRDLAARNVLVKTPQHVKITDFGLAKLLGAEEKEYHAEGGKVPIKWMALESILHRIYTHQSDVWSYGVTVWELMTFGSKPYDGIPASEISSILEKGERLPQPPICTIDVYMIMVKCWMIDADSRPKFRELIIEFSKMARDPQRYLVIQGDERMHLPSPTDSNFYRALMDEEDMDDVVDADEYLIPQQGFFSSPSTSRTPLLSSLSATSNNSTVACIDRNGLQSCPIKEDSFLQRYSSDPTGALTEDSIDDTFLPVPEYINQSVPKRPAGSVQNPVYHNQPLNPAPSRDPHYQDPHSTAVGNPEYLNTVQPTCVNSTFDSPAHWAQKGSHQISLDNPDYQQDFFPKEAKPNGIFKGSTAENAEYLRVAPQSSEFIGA
T1 sequence (P07948 whole entry): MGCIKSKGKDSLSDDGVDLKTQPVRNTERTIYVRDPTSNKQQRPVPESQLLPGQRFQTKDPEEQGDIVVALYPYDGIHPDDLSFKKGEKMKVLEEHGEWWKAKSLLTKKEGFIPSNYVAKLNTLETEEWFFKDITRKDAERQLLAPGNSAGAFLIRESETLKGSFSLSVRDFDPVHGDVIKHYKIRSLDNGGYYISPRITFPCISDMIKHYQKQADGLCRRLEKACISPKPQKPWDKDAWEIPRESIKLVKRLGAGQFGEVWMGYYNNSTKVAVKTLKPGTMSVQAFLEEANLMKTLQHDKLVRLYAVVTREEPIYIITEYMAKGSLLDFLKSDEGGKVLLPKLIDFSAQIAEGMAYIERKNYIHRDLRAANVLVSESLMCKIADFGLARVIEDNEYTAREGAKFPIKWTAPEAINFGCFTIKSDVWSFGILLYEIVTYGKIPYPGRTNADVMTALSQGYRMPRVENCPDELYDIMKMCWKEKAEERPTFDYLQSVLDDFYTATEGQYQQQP

inhibition at 2 µM (Lyn kinase (human))	inhibition at 2 µM (EGFR)	inhibition at 1 µM (HER-2)	inhibition at 2 µM (c-Src kinase (human))	IC50 (EGFR)	IC50 (HER-2)	SMILES
7%	20%	-6%	-22%			COc1cc(NC(=O)c2sc3ncnc4c3c2NC(=O)N4c2cc(OCc3cccc(F)c3)c(Cl)cc2Cl)ccc1OCCN1CCCCC1 [Cpd 56, 5-[2,4-dichloro-5-(3-fluoro-benzyloxy)-phenyl]-4-oxo-4,5-dihydro-3H-1-thia-3,5,6,8-tetraaza-acenaphthylene-2-carboxylic acid [3-methoxy-4-(2-piperidin-1-yl-ethoxy)-phenyl]-amide]
1%	12%	-20%	-16%			O=C(Nc1ccc(CN2CCCCC2)cc1)c1sc2ncnc3c2c1NC(=O)N3c1cc(OCc2cccc(F)c2)c(Cl)cc1Cl [Cpd 57, 5-[2,4-dichloro-5-(3-fluoro-benzyloxy)-phenyl]-4-oxo-4,5-dihydro-3H-1-thia-3,5,6,8-tetraaza-acenaphthylene-2-carboxylic acid (4-piperidin-1-ylmethyl-phenyl)-amide]
6%	16%	-27%	-48%			O=C(O)c1sc2ncnc3c2c1NC(=O)N3c1cc(OCc2cccc(F)c2)c(Cl)cc1Cl [Cpd 58, 5-[2,4-dichloro-5-(3-fluoro-benzyloxy)-phenyl]-4-oxo-4,5-dihydro-3H-1-thia-3,5,6,8-tetraaza-acenaphthylene-2-carboxylic acid]
8%	20%	-18%	-13%			CN(Cc1ccc(NC(=O)c2sc3ncnc4c3c2NC(=O)N4c2cc(OCc3cccc(F)c3)c(Cl)cc2Cl)cc1)C[C@H]1CCCO1 [Cpd 59, 5-[2,4-dichloro-5-(3-fluoro-benzyloxy)-phenyl]-4-oxo-4,5-dihydro-3H-1-thia-3,5,6,8-tetraaza-acenaphthylene-2-carboxylic acid [4-({methyl-[(2R)-tetrahydro-furan-2-ylmethyl]-amino}-methyl)-phenyl]-amide]
30%	9%	-11%	-2%			CN1CCN(Cc2ccc(NC(=O)c3sc4ncnc5c4c3NC(=O)N5c3cc(OCc4cccc(F)c4)c(Cl)cc3Cl)cc2)CC1 [Cpd 61, 5-[2,4-dichloro-5-(3-fluoro-benzyloxy)-phenyl]-4-oxo-4,5-dihydro-3H-1-thia-3,5,6,8-tetraaza-acenaphthylene-2-carboxylic acid [4-(4-methyl-piperazin-1-ylmethyl)-phenyl]-amide]
17.8%		58%	-9%	120 nM	643 nM	COc1ccc(N2C(=O)Nc3c(C(=O)Nc4ccc(CN5CCOCC5)cc4)sc4ncnc2c34)c(F)c1 [Cpd 65, 5-(2-fluoro-4-methoxy-phenyl)-4-oxo-4,5-dihydro-3H-1-thia-3,5,6,8-tetraaza-acenaphthylene-2-carboxylic acid (4-morpholin-4-ylmethyl-phenyl)-amide]
22.5%		51%	-17%	103 nM	965 nM	COc1ccc(N2C(=O)Nc3c(C(=O)Nc4ccc(OCCN5CCOCC5)c(OC)c4)sc4ncnc2c34)c(F)c1 [Cpd 67, 5-(2-fluoro-4-methoxy-phenyl)-4-oxo-4,5-dihydro-3H-1-thia-3,5,6,8-tetraaza-acenaphthylene-2-carboxylic acid [3-methoxy-4-(2-morpholin-4-yl-ethoxy)-phenyl]-amide]
-3%			12%	110 nM	3150 nM	O=C(NCCN1CCOCC1)c1sc2ncnc3c2c1NC(=O)N3c1ccc(Oc2ccccc2)cc1 [Cpd 105, 4-oxo-5-(4-phenoxy-phenyl)-4,5-dihydro-3H-1-thia-3,5,6,8-tetraaza-acenaphthylene-2-carboxylic acid (2-morpholin-4-yl-ethyl)-amide]
27%			30%	42 nM	771 nM	O=C(NCCCO)c1sc2ncnc3c2c1NC(=O)N3c1ccc(Oc2ccccc2)cc1 [Cpd 106, 4-oxo-5-(4-phenoxy-phenyl)-4,5-dihydro-3H-1-thia-3,5,6,8-tetraaza-acenaphthylene-2-carboxylic acid (3-hydroxy-propyl)-amide]
30%			-16%	1030 nM	5060 nM	O=C(O)c1sc2ncnc3c2c1NC(=O)N3c1ccc(Oc2ccccc2)c(F)c1 [Cpd 112, 5-(3-fluoro-4-phenoxy-phenyl)-4-oxo-4,5-dihydro-3H-1-thia-3,5,6,8-tetraaza-acenaphthylene-2-carboxylic acid]
51.2%			-1%	42 nM	182 nM	CN1CCN(Cc2ccc(NC(=O)c3sc4ncnc5c4c3NC(=O)N5c3ccc(Oc4ccccc4)c(F)c3)cc2)CC1 [Cpd 115, 5-(3-fluoro-4-phenoxy-phenyl)-4-oxo-4,5-dihydro-3H-1-thia-3,5,6,8-tetraaza-acenaphthylene-2-carboxylic acid [4-(4-methyl-piperazin-1-ylmethyl)-phenyl]-amide]
-47%			-17%	1800 nM	1090 nM	Cc1ccc(Oc2ccc(N3C(=O)Nc4c(C(=O)Nc5ccc(CN6CCOCC6)cc5)sc5ncnc3c45)cc2C)cn1 [Cpd 119, 5-[3-methyl-4-(6-methyl-pyridin-3-yloxy)-phenyl]-4-oxo-4,5-dihydro-3H-1-thia-3,5,6,8-tetraaza-acenaphthylene-2-carboxylic acid (4-morpholin-4-ylmethyl-phenyl)-amide]
0%			-5%	1080 nM	11700 nM	COc1ccc(N2C(=O)Nc3c(C(=O)Nc4ccc(CCN5CCCCC5)cc4)sc4ncnc2c34)cc1Cl [Cpd 120, 5-(3-chloro-4-methoxy-phenyl)-4-oxo-4,5-dihydro-3H-1-thia-3,5,6,8-tetraaza-acenaphthylene-2-carboxylic acid [4-(2-piperidin-1-yl-ethyl)-phenyl]-amide]
-13%			-1%	344 nM	3520 nM	COc1ccc(N2C(=O)Nc3c(C(=O)Nc4ccc(CN5CCCCC5)cc4)sc4ncnc2c34)cc1Cl [Cpd 121, 5-(3-chloro-4-methoxy-phenyl)-4-oxo-4,5-dihydro-3H-1-thia-3,5,6,8-tetraaza-acenaphthylene-2-carboxylic acid (4-piperidin-1-ylmethyl-phenyl)-amide]
3%			-9%	222 nM	1440 nM	COc1ccc(N2C(=O)Nc3c(C(=O)Nc4ccc(CN5CCOCC5)cc4)sc4ncnc2c34)cc1Cl [Cpd 122, 5-(3-chloro-4-methoxy-phenyl)-4-oxo-4,5-dihydro-3H-1-thia-3,5,6,8-tetraaza-acenaphthylene-2-carboxylic acid (4-morpholin-1-ylmethyl-phenyl)-amide]
18%	9%		30%		> 100000 nM	O=C(Nc1ccc(CN2CCCCC2)cc1)c1sc2ncnc3c2c1NC(=O)N3c1ccc(N2CCOCC2)cc1 [Cpd 124, 5-(4-morpholin-4-yl-phenyl)-4-oxo-4,5-dihydro-3H-1-thia-3,5,6,8-tetraaza-acenaphthylene-2-carboxylic acid (4-piperidin-1-ylmethyl-phenyl)-amide]
